{"source": "patent US20260184726A1", "about": "“HETEROCYCLIC COMPOUNDS AS KINASE INHIBITORS, COMPOSITIONS, AND METHODS OF USE THEREOF” (JS INNOMED HOLDINGS LTD., priority 2022, published 2026)", "key": {"human Aurora B kinase": {"biological_target": "T1, human Aurora B kinase (Homo sapiens, UniProt Q96GD4)", "T1 construct": "purchased Carna 05-102", "T1 sequence (Q96GD4 whole entry)": "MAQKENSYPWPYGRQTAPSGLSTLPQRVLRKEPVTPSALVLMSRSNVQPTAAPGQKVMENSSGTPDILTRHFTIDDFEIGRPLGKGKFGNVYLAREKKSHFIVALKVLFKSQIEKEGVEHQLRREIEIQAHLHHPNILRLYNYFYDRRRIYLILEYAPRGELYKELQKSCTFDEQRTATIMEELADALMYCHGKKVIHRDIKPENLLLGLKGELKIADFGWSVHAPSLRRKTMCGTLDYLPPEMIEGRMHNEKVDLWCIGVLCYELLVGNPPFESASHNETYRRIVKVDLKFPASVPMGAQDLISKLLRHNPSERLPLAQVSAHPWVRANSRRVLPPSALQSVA", "T1 sequence (Q9NQS7 803-918 partner limits assumed)": "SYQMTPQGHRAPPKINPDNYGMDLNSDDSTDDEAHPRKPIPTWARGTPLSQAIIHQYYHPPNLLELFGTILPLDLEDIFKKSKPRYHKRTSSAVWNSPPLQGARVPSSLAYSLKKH", "experiment": "Aurora B Kinase Assay (mobility shift assay, ATP at Km)", "type": "biochemical", "settings": "15 μM ATP (Km), read-out: AurB Enzymatic Activity", "protocol": "Compounds were tested by Mobility shift assay with ATP concentration at Km. The assay used human Aurora B kinase (Carna 05-102). Test compounds were prepared and diluted in DMSO in 3-fold serial dilutions to 50× of the final testing concentrations. The compounds were then further diluted to 5× by the kinase reaction buffer (50 mM HEPES pH 7.5, 0.0015% Brij-35). The enzymatic reaction for compound testing was performed in a white 384-well polypropylene plate (Corning 3573) with a total reaction volume of 25 μl containing 9 nM Aurora B, 3 μM peptide substrate FAM-P21 (GL Biochem 116370), and 15 μM ATP (Sigma A7699-1G). The assay started with loading Aurora B diluted in kinase reaction buffer to wells, followed by addition of equal volume of 5× compounds for 15-min incubation at the room temperature for pre-treatment. The enzymatic reaction was initiated by addition of mixture of the substrate and ATP prepared in kinase reaction buffer. After incubation at 28° C. for one hour, 25 μl of stopper buffer (a mixture of 100 mM HEPES pH 7.5 buffer, 0.015% Brij-35, 50 mM EDTA and 0.2% of coating reagent 3 (Cliper Lifesciences)). After 30 minutes of incubation at room temperature, the plate was read in a Caliper. Percent of control was calculated as the percentage of compound-treated vs 2% DMSO vehicle-treated. The dose-response curves were generated and the IC50 values were calculated by nonlinear sigmoid curve fitting using XLFit."}, "human KDR kinase": {"biological_target": "T2, human KDR kinase (Homo sapiens, UniProt P35968)", "T2 construct": "purchased Carna 08-191", "T2 sequence (P35968 20-1356)": "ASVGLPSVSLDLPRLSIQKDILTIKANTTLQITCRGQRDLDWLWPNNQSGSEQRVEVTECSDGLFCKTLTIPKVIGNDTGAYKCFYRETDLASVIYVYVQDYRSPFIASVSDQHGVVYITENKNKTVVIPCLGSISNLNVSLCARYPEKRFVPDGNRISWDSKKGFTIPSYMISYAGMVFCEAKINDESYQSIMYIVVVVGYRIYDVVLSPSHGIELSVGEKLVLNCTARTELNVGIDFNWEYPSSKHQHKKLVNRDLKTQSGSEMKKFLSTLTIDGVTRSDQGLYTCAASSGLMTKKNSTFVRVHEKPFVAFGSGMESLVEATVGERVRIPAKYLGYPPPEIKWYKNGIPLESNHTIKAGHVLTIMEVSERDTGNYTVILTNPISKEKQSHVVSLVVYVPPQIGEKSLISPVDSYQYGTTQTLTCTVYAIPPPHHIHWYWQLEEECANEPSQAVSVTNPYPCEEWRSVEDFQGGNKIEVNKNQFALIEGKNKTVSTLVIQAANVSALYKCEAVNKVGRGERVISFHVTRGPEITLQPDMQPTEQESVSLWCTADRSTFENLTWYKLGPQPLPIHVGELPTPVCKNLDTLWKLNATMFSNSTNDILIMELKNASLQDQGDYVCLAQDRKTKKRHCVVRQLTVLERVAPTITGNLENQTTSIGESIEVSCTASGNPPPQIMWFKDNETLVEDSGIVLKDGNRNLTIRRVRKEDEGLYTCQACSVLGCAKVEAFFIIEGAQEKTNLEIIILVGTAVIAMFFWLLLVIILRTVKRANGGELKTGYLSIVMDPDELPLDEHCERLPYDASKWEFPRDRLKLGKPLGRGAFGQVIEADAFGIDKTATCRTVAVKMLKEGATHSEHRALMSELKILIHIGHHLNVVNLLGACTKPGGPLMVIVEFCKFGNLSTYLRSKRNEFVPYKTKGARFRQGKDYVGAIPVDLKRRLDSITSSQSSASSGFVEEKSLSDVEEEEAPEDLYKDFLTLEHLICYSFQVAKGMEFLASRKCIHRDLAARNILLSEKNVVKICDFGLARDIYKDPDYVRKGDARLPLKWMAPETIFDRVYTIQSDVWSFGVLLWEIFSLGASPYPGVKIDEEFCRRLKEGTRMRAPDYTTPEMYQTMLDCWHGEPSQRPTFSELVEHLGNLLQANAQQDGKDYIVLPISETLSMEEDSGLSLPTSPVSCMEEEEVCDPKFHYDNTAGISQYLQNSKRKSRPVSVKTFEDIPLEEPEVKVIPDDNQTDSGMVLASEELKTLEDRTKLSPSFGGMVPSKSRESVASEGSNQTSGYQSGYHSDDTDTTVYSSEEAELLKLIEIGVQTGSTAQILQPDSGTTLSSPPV", "experiment": "KDR Kinase Assay (mobility shift assay, ATP at Km)", "type": "biochemical", "settings": "92 μM ATP (Km), read-out: KDR Enzymatic Activity", "protocol": "Compounds were tested by Mobility shift assay with ATP concentration at Km. The assay used human KDR kinase (Carna 08-191). Test compounds were prepared and diluted in DMSO in 3-fold serial dilutions to 50× of the final testing concentrations. The compounds were then further diluted to 5× by the kinase reaction buffer (50 mM HEPES pH 7.5, 0.0015% Brij-35). The enzymatic reaction for compound testing was performed in a white 384-well polypropylene plate (Corning 3573) with a total reaction volume of 25 μl containing 1.2 nM KDR, 3 μM peptide substrate FAM-P22 (GL Biochem 112393), and 92 μM ATP (Sigma A7699-1G). The assay started with loading RET diluted in kinase reaction buffer to wells, followed by addition of equal volume of 5× compounds for 15-min incubation at the room temperature for pre-treatment. The enzymatic reaction was initiated by addition of mixture of the substrate and ATP prepared in kinase reaction buffer. After incubation at 28° C. for one hour, 25 μl of stopper buffer (a mixture of 100 mM HEPES pH 7.5 buffer, 0.015% Brij-35, 50 mM EDTA and 0.2% of coating reagent 3 (Cliper Lifesciences)). After 30 minutes of incubation at room temperature, the plate was read in a Caliper. Percent of control was calculated as the percentage of compound-treated vs 2% DMSO vehicle-treated. The dose-response curves were generated and the IC50s were calculated by nonlinear sigmoid curve fitting using XLFit."}, "human RET kinase": {"biological_target": "T3, human RET kinase (Homo sapiens, UniProt P07949)", "T3 construct": "purchased Carna 08-159", "T3 sequence (P07949 29-1114)": "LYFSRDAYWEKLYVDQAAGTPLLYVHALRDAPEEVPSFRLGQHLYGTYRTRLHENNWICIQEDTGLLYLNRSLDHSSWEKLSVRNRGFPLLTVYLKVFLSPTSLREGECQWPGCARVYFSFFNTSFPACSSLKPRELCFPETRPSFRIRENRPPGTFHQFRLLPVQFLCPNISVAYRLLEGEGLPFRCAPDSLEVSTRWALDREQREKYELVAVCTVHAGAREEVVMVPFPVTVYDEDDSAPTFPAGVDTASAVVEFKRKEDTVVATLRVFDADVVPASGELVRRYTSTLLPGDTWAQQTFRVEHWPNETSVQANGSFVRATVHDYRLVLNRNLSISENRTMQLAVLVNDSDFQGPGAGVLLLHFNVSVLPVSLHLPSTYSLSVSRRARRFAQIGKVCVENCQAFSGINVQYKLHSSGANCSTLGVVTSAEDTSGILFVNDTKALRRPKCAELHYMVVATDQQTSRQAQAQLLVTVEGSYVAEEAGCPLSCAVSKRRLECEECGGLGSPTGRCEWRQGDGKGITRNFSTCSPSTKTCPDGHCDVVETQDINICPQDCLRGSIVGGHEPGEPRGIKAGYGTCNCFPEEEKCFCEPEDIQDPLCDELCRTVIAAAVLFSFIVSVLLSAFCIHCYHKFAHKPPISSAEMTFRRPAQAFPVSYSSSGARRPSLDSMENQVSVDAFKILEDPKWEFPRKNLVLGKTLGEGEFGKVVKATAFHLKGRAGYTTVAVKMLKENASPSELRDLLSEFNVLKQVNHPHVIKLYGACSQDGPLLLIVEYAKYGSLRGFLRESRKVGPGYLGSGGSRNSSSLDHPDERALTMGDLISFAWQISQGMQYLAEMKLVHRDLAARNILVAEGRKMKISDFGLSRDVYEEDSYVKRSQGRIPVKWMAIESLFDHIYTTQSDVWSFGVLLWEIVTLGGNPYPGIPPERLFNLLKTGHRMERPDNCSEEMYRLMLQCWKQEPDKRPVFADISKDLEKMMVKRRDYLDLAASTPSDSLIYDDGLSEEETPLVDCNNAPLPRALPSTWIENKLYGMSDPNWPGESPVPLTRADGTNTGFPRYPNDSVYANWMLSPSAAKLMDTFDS", "experiment": "RET Kinase Assay (mobility shift assay, ATP at Km)", "type": "biochemical", "settings": "23 μM ATP (Km), read-out: RET Enzymatic Activity", "protocol": "Compounds were tested by Mobility shift assay with ATP concentration at Km. The assay used human RET kinase (Carna 08-159). Test compounds were prepared and diluted in DMSO in 3-fold serial dilutions to 50× of the final testing concentrations. The compounds were then further diluted to 5× by the kinase reaction buffer (50 mM HEPES pH 7.5, 0.0015% Brij-35). The enzymatic reaction for compound testing was performed in a white 384-well polypropylene plate (Corning 3573) with a total reaction volume of 25 μl containing 7 nM RET, 3 μM peptide substrate FAM-P2 (GL Biochem 112394), and 23 μM ATP (Sigma A7699-1G). The assay started with loading RET diluted in kinase reaction buffer to wells, followed by addition of equal volume of 5× compounds for 15-min incubation at the room temperature for pre-treatment. The enzymatic reaction was initiated by addition of mixture of the substrate and ATP prepared in kinase reaction buffer. After incubation at 28° C. for one hour, 25 μl of stopper buffer (a mixture of 100 mM HEPES pH 7.5 buffer, 0.015% Brij-35, 50 mM EDTA and 0.2% of coating reagent 3 (Cliper Lifesciences)). After 30 minutes of incubation at room temperature, the plate was read in a Caliper. Percent of control was calculated as the percentage of compound-treated vs 2% DMSO vehicle-treated. The dose-response curves were generated and the IC50 values were calculated by nonlinear sigmoid curve fitting using XLFit."}, "BAF3 cells": {"tested_on": "BAF3 cells", "experiment": "BAF3 Cell Proliferation Assay (CellTiter-Glo, without RET driven, IL-3)", "type": "cell-based", "settings": "Mus musculus; growth inhibition in BAF3 cells, 72 hours, with IL-3; read-out: BAF3 Cellular Activity", "procedure,_shortened": "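BAF3 cells in RPMI-1640 with 10% FBS and 1 ng/ml IL-3, seeded 2,000/well and settled 24 h at 37 °C, then exposed to compound at final 10 μM down to 0.0015 μM (0.1% DMSO) for 72 h. Viability by CellTiter-Glo luminescence versus DMSO controls; IC50 from curve fit.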"}}, "data": [{"smiles": "COc1ccc(CN2C3CC2CN(c2ccc(-c4cc(-c5ccc(C(C)(C)NC(C)=O)cn5)cn5ncc(C#N)c45)cn2)C3)cn1", "note": "[Example 12, N-(2-(6-(3-cyano-4-(6-(6-((6-methoxypyridin-3-yl)methyl)-3,6-diazabicyclo[3.1.1]heptan-3-yl)pyridin-3-yl)pyrazolo[1,5-a]pyridin-6-yl)pyridin-3-yl)propan-2-yl)acetamide]", "values": [{"measurement": "IC50", "setting": "human Aurora B kinase", "value": 0.0252, "unit": "µM"}, {"measurement": "IC50", "setting": "human KDR kinase", "value": 0.002, "unit": "µM"}, {"measurement": "IC50", "setting": "human RET kinase", "value": 0.0004, "unit": "µM"}, {"measurement": "IC50", "setting": "BAF3 cells", "value": 1.05, "unit": "µM"}]}]}
